Reference: patent US10801025B2, “MicroRNA therapy for pancreatic cancer” (Indiana University Research and Technology Corporation, priority 2016, dated 2020)

What was measured:
[1] = tested on: Panc-1 and MIA PaCa-2 cells; assay: Cell viability, Cell Counting Kit-8 (CCK8); format: cell-based, human; conditions: 10 μM BafA1 in combination with 10 μM gemcitabine, 48 hours, compared to gemcitabine alone
Experimental: 5×10^3 pancreatic cancer cells per well (Panc-1, MIA PaCa-2, or COLO 357) were plated in 96-well plates and grown at 37° C. for 24 hours. Cells were then transfected with 20 nM mimic control or miR-29a mimic using DharmaFECT® 1 for 24 hours. Transfection media was then removed and replaced with complete media, and cells were allowed to recover for 24 hours and subsequently treated with varying concentrations of gemcitabine (0 μM, 0.1 μM, 1 μM, 10 μM, 100 μM). Cell viability was measured at 72 hours post-gemcitabine treatment by adding 10 μl Cell Counting Kit-8 (CCK8) reagent (Dojindo, CK04) and absorbance was measured at 450 nm. For cell viability with Chloroquine (CQ) and BafilomycinA1 (BafA1) treatment, cells were treated with 25 μM CQ (Sigma Aldrich, C6628) or 10 μM BafA1 (Sigma Aldrich, B1793) in combination with 10 μM gemcitabine for 48 hours, and viability was measured using CCK8 kit as described above.

Panc-1 cells = assay: Autophagy flux immunoblotting (LC3B, p62); format: cell-based, human; conditions: 25 μM CQ added to control mimic cells
Experimental: Cells were then transfected with 10 nM control or miR-29a mimics using DharmaFECT®. 24 hours post-transfection, cells were treated with 25 μM CQ in complete media for 3-6 hours. Subsequently, total proteins were harvested and subjected to western blot analysis as described above.

SMILES | cancer cell viability [1] | LC3BI and II and p62 accumulation (Panc-1 cells)
CO/C1=C\C(C)=C\[C@@H](C)[C@@H](O)[C@@H](C)C/C(C)=C/C=C/[C@H](OC)[C@@H]([C@@H](C)[C@@H](O)[C@H](C)[C@@]2(O)C[C@@H](O)[C@H](C)[C@@H](C(C)C)O2)OC1=O [BafA1, BafilomycinA1] | decreased cancer cell viability | –
CCN(CC)CCCC(C)Nc1ccnc2cc(Cl)ccc12 (centres unmarked) [CQ, Chloroquine] | – | robust net increase
